In article PMC9652379, “Safety evaluations of a synthetic antimicrobial peptide administered intravenously in rats and dogs” (Scientific Reports, 2022):

Tested on: rats
Assay: Respiratory function in rats (whole body plethysmography)
Type: in vivo, rat
Settings: rats, 15 mg/kg single iv injection, positive control
Experimental: The possible side-effects of SET-M33 on respiratory function were evaluated after administration of the peptide as a single intravenous bolus at doses of 5, 9 and 15 mg/kg with vehicle (eight animals/group). Respiratory rate, tidal volume and minute volume were assessed. As in the case of neurological toxicity and the 4-week toxicity study, again the dose levels were selected on the basis DRF (above). Baclofen, a muscle relaxer and antispasmodic used to treat muscle pain, spasms and stiffness in people with multiple sclerosis or spinal cord injury or disease, was used as positive control. It was administered as a single intravenous injection at a dose of 15 mg/kg.
Whole body, bias flow plethysmography equipment was used[51]. Respiratory parameters (respiratory rate, tidal volume and minute volume) were derived from the changes in pressure associated with the warming and humidification of the air breathed in by the animal. This was monitored by specific probes located in the plethysmograph chambers. Bias flow (room air) was set at approximately 2.5 L/min. On a day prior to the first day of dosing, all animals were habituated to the plethysmographs for approximately 2 h. The study was run over 4 days and 10 animals (two from each group) were examined each day. On the day of dosing, the animals were placed in the plethysmographs for pre-dose recording (session 1) of respiratory parameters for 60 min. Groups of 8 rats were then removed from the chambers and dosed by intravenous bolus injection with vehicle, SET-M33 or positive control. Immediately after dosing, the rats were placed in the whole body plethysmographs, where they could move about freely, to continuously record respiratory parameters for 4 h post-dose (undisturbed recording). Immediately after the last post-dose recording, the animals were killed humanely by a rising concentration of carbon dioxide. Death was confirmed by dislocation of the neck. Respiratory parameters were reported at the following time points: 0, 30, 60, 90, 120, 150, 180, 210 and 240 min. Time 0 coincided with the mean value of the last 20 min of data recorded in the 60-min pre-dose period. All other time points were the mean of 10-min recordings (an average of every 10 breaths) around each time point. Each post-dose time point was analysed separately by analysis of covariance. Factors in the model were group and day of data collection, with pre-dose values as covariate.

## NCC(CC(=O)O)c1ccc(Cl)cc1 (centres unmarked) [Baclofen, reference compound]
  respiratory rate vs vehicle: sharp, statistically significant decrease
  tidal volume and minute volume vs vehicle: sharp, statistically significant increases
